Measured values taken from ChEMBL document CHEMBL3132754 (Medchemcomm, 2013).

How the values were obtained:
MV4-11 = test: […] histone methylation in human MV4-11 cells assessed as H3K79 methylation after 4 days by Western blot analysis; format: functional, cell-based; settings: MV4-11, 96 h
[1] = Metabolic stability in human liver microsomes assessed as compound remaining at 200 uM measured after 1 hr by LC/MS/MS method; format: ADME; settings: read-out: Stability
Plasma = test: (§1) Stability in human plasma assessed as compound remaining at 5 uM after 1 hr by LC/MS/MS method; format: ADME, cell-free; settings: 1 h, 5 µM
[2] = as §1; format: ADME, cell-free; settings: read-out: Stability

IC50 (MV4-11)	remaining at 1 h, 200 µM [1]	Stability (Plasma)	remaining at 1 h, 5 µM [2]	Compound
200 nM	50%	Stable		CC(C)N(CCCNC(=O)Nc1ccc(C(C)(C)C)cc1)CC1=C[C@@H](n2cnc3c(N)ncnc32)[C@H](O)[C@@H]1O
		Stable		CC(C)N(CCCNC(=O)Nc1ccc(C(C)(C)C)cc1)C[C@H]1C[C@@H](n2cnc3c(N)ncnc32)[C@H](O)[C@@H]1O
	50%		90%	CC(C)N(CCCNC(=O)Nc1ccc(C(C)(C)C)cc1)C[C@H]1O[C@@H](n2cnc3c(N)ncnc32)[C@H](O)[C@@H]1O
